From ChEMBL document CHEMBL3351745, “Synthesis and in vitro evaluation of radioiodinated indolequinones targeting NAD(P)H: quinone oxidoreductase 1 for internal radiation therapy” (Bioorg Med Chem, 2014)

Key:
[1] = Stability of the compound in PBS assessed as compound remaining at 74 KBq at pH 7.4 after 24 hrs by reversed phase TLC analysis; type: physicochemical; details: read-out: Stability
[2] = Stability in mouse plasma assessed as compound remaining at 74 KBq after 24 hrs by reversed phase TLC analysis; type: ADME, cell-free; details: read-out: Stability
[3] = molecular target: NAD(P)H dehydrogenase [quinone] 1 (printed NOQ-1) (Homo sapiens, UniProt P15559); experiment: Activity of NOQ-1 expressed in human HT-29 cell lysate assessed as compound remaining at 185 KBq after 2 hrs by reversed phase TLC analysis; type: ADME, cell-free; details: read-out: Stability
NAD(P)H dehydrogenase [quinone] 1 (printed NOQ-1), sequence (P15559 whole entry): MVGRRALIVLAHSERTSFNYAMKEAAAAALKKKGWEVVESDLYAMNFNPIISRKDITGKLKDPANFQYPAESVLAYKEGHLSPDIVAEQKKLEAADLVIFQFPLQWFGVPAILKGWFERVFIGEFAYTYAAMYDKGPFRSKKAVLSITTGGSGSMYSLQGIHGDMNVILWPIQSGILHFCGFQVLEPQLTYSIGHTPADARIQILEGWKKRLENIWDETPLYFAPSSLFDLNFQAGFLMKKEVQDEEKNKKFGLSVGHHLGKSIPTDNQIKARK

[4] = molecular target: NAD(P)H dehydrogenase [quinone] 1 (Homo sapiens, UniProt P15559); experiment: Activity of NOQ-1 expressed in human HT-29 cell lysate assessed as p-[125I]-iodophenol formation at 185 KBq after 2 hrs by reversed phase TLC analysis; type: ADME, cell-free; details: ht-29, 2 h
NAD(P)H dehydrogenase [quinone] 1, sequence (P15559 whole entry): as above

HT-29 [5] = experiment: Cellular uptake in human HT-29 cells at 18.5 kBq up to 5 mins by gamma-counting analysis; type: ADME, cell-based; details: ht-29, 5 min
HT-29 [6] = experiment: Cellular uptake in human HT-29 cells at 18.5 kBq after 2 hrs by gamma-counting analysis; type: ADME, cell-based; details: ht-29, 2 h
[7] = Drug metabolism in human HT-29 cells assessed as compound remaining at 18.5 kBq after 60 mins by reversed phase TLC analysis; type: ADME, cell-based; details: read-out: Stability
HT-29 [8] = experiment: Drug metabolism in human HT-29 cells assessed as p-[125I]-iodophenol formation at 18.5 kBq after 60 mins by reversed phase TLC analysis; type: ADME, cell-based; details: ht-29, 1 h
HT-29 [9] = experiment: Drug metabolism in human HT-29 cells assessed as m-[125I]-iodophenol formation at 18.5 kBq after 60 mins by reversed phase TLC analysis; type: ADME, cell-based; details: ht-29, 1 h
HT-29 [10] = experiment: Drug metabolism in human HT-29 cells assessed as [125I]-I formation at 18.5 kBq after 60 mins by reversed phase TLC analysis; type: ADME, cell-based; details: ht-29, 1 h
[11] = Stability of the compound in cell culture media; type: physicochemical
A549 [12] = experiment: Cellular uptake in human A549 cells at 18.5 kBq after 1 to 120 mins by gamma-counting analysis; type: ADME, cell-based
A549 [13] = experiment: Drug metabolism in human A549 cells assessed as p-[125I]-iodophenol formation at 18.5 kBq after 60 mins by reversed phase TLC analysis; type: ADME, cell-based; details: a549, 1 h
A549 [14] = experiment: Drug metabolism in human A549 cells assessed as [125I]-I formation at 18.5 kBq after 60 mins by reversed phase TLC analysis; type: ADME, cell-based; details: a549, 1 h
HT-29 [15] = experiment: Drug level in human HT-29 cells treated with 18.5 kBq [125I]-3-([4-Iodophenoxy]methyl)-5-methoxy-1,2-dimethyl-1Hindole-4,7-dione after 60 mins by reversed phase TLC analysis; type: ADME, cell-based; details: ht-29, 1 h
HT-29 [16] = experiment: Drug level in human HT-29 cells treated with 18.5 kBq [125I]-3-([3-Iodophenoxy]methyl)-5-methoxy-1,2-dimethyl-1Hindole-4,7-dione after 60 mins by reversed phase TLC analysis; type: ADME, cell-based; details: ht-29, 1 h
A549 [17] = experiment: Drug level in human A549 cells treated with 18.5 kBq [125I]-3-([4-Iodophenoxy]methyl)-5-methoxy-1,2-dimethyl-1Hindole-4,7-dione after 60 mins by reversed phase TLC analysis; type: ADME, cell-based; details: a549, 1 h
A549 [18] = experiment: Cellular uptake in human A549 cells at 18.5 kBq by gamma-counting analysis; type: ADME, cell-based
[19] = Ratio of cellular uptake in human A549 cells to cellular uptake in human HT-29 cells; type: ADME, cell-based
[20] = Drug metabolism in human A549 cells assessed as compound remaining at 18.5 kBq after 60 mins by reversed phase TLC analysis; type: ADME, cell-based; details: read-out: Stability
A549 [21] = experiment: Cellular uptake in human A549 cells at 18.5 kBq after 30 mins by gamma-counting analysis in presence of 3-([{4-Iodophenyl}thio]methyl)-5-methoxy-1,2-dimethyl-1H-indole-4,7-dione; type: ADME, cell-based; details: a549, 0.5 h
HT-29 [22] = experiment: Cellular uptake in human HT-29 cells at 18.5 kBq after 30 mins by gamma-counting analysis in presence of 3-([{4-Iodophenyl}thio]methyl)-5-methoxy-1,2-dimethyl-1H-indole-4,7-dione; type: ADME, cell-based; details: ht-29, 0.5 h

Row | Compound | remaining at 24 h, 74 KBq [1] [%] | remaining at 24 h, 74 KBq [2] [%] | remaining at 2 h, 185 KBq [3] [%] | Drug uptake (HT-29 [5]) | Drug uptake (HT-29 [6]) | remaining at 1 h, 18.5 kBq [7] [%] | Drug metabolism (HT-29 [8]) | Drug metabolism (HT-29 [9]) | Drug metabolism (HT-29 [10]) | Stability [11] | Drug uptake (HT-29 [15]) | Drug uptake (HT-29 [16]) | Drug uptake (A549 [17]) | also measured
1 | [125IH] | – | – | – | – | – | – | – | – | – | – | Active | Active | Active | –
2 | COC1=CC(=O)c2c(c(CSc3ccc([125I])cc3)c(C)n2C)C1=O | > 90 | > 97 | 92 | – | Active | – | – | – | – | Stable | – | – | – | Drug uptake (A549 [18]): Dose-dependent effect; Ratio [19]: 4; remaining at 1 h, 18.5 kBq [20]: > 85%; Drug uptake (A549 [21]): Not Active; Drug uptake (HT-29 [22]): Not Active
3 | Oc1ccc([125I])cc1 | – | – | – | – | – | – | – | – | – | – | Active | Active | Active | –

The next lines start with results.

Row | remaining at 24 h, 74 KBq [1] [%] | remaining at 24 h, 74 KBq [2] [%] | remaining at 2 h, 185 KBq [3] [%] | Drug uptake (HT-29 [5]) | Drug uptake (HT-29 [6]) | remaining at 1 h, 18.5 kBq [7] [%] | Drug metabolism (HT-29 [8]) | Drug metabolism (HT-29 [9]) | Drug metabolism (HT-29 [10]) | Stability [11] | Drug uptake (HT-29 [15]) | Drug uptake (HT-29 [16]) | Compound | Drug uptake (A549 [17]) | also measured
4 | > 90 | 80 | < 25 | Active | Active | < 10 | metabolite_detected | metabolite_detected | metabolite_detected | Stable | – | – | COC1=CC(=O)c2c(c(COc3ccc([125I])cc3)c(C)n2C)C1=O | – | Drug metabolism [4]: metabolite_detected; Drug uptake (A549 [12]): Active; Drug metabolism (A549 [13]): metabolite_detected; Drug metabolism (A549 [14]): metabolite_detected
5 | – | – | – | – | – | – | – | – | – | – | Active | Active | Oc1cccc([125I])c1 | – | –
6 | > 90 | 80 | – | Active | Active | < 10 | metabolite_detected | metabolite_detected | metabolite_detected | Stable | – | – | COC1=CC(=O)c2c(c(COc3cccc([125I])c3)c(C)n2C)C1=O | – | –
